Measurements published in patent US20240327415A1, “Multicomponent Complexes, Including Salts, Crystalline Forms, and Hydrates and Solvates of ENT1 Inhibitors” (iTeos Belgium SA, priority 2023, published 2024).

Columns and labels:
Type in all cases: physicochemical
[1] = XRPD characterization (summary Table 59); settings: crystallinity
[2] = Dynamic Vapor Sorption (DVS); settings: for post-DVS sample (XRPD / appearance): DVS at 25° C.
Experimental: (§1) METHOD A: In Example 11, approximately 5-15 mg of sample was placed into a mesh vapor sorption balance pan and loaded into either a DVS Intrinsic or DVS Advantage dynamic vapor sorption balance by Surface Measurement Systems. The sample was subjected to a ramping profile from 40-90% relative humidity (RH) at 10% increments, maintaining the sample at each step until a stable weight had been achieved (dm/dt 0.004%, minimum step length 30 minutes, maximum step length 500 minutes) at 25° C. After completion of the sorption cycle, the sample was dried using the same procedure to 0% RH and then a second sorption cycle back to 40% RH was carried out. Two cycles were performed. The weight change during the sorption/desorption cycles were plotted, allowing the hygroscopic nature of the sample to be determined. XRPD analysis was then carried out on the residual solid.
as §1, with “B:” for “A:”, “Examples 2A, 3, 14, and 17,” for “Example 11,”, “10-20” for “5-15”, “determined.” for “determined. XRPD analysis was then carried out on the residual solid.”
as §1, with “Approximately 10-20” for “METHOD A: In Example 11, approximately 5-15”, “RH” for “relative humidity (RH)”, “min,” for “minutes,”, “min)” for “minutes)”, “determined.” for “determined. XRPD analysis was then carried out on the residual solid.”

[3] = Variable Temperature X-Ray Powder Diffraction (VT-XRPD)
Experimental: (§2) In the examples below, VT-XRPD analysis was carried out on a Philips X'Pert Pro Multipurpose diffractometer equipped with a temperature chamber. The samples were scanned between 4 and 36° 2θ using Cu K radiation (α1 λ=1.54060 Å; α2=1.54443 Å; β=1.39225 Å; α1: α2 ratio=0.5; most, if not all, B radiation is removed from the beam using an X-ray mirror) running in Bragg-Brentano geometry (step size 0.008° 2θ) using 40 kV/40 mA generator settings. Measurements were carried out from ambient temperature to an upper limit of 250° C., with a final measurement taken after cooling.
as §2, with “VT-XRPD” for “In the examples below, VT-XRPD”, “Å; β2=1.39225” for “Å; β=1.39225”, “Å; α1:α2” for “Å; α1: α2”, “all, β” for “all, B”

[4] = Karl Fischer coulometric titration (water content)
Experimental: In the examples below, KF titration measured using either an In Motion KF Autosampler or Direct Addition Method. The In Motion KF Autosampler was carried out via the following procedure. 15-20 mg of solid was weighed into a 10 mL glass vial and tightly sealed with a screw cap. Samples were analyzed using a Mettler Toledo C30SX and an InMotion KFOven Autosampler at 130° C. Samples were analyzed in duplicate and an average moisture content reported. See table below for further details.
The Direct Addition Method was carried out via the following procedure. 15-20 mg of solid material was accurately weighed into a vial. The solid was then manually introduced into the titration cell of a Mettler Toledo C30 Compact Titrator. The vial was back-weighed after the addition of the solid and the weight of the added solid entered on the instrument. Titration was initiated once the sample had fully dissolved in the cell. The water content was calculated automatically by the instrument as a percentage and the data printed.

[5] = seven-day solid stability studies (ambient; 40° C./75% RH; 80° C.), XRPD and HPLC
Experimental: In the experiment, one set of vials was exposed to ambient light, temperature and humidity conditions. Another was exposed openly to 40° C. and 75% RH conditions and a third was sealed and exposed to 80° C. conditions. After 7 days, XRPD and HPLC measurements were collected.
Example 12-Stability Studies of Amorphous Compound 1 (free base) and Crystalline Form 1 Compound 1 (free base): Seven-day stability studies were carried out comparing amorphous Compound 1 (free base) and crystalline Form 1 Compound 1 (free base) at 40° C./75% RH, under ambient conditions and at 80° C. After storage at 40° C./75% RH and 80° C., the amorphous material formed glassy solids which were pale yellow (40° C./75% RH) or orange (80° C.). It is likely that the material melted and re-solidified at 80° C. and deliquesced at 40° C./75% RH. […] (decrease in purity of ca. 11% area).
Example 15-Stabilities Studies-Crystalline Form 3 Compound 1 di(hydrogen sulfate) and Crystalline Form 4 Compound 1 mono(hydrogen sulfate): Seven-day stability studies were carried out on the prepared crystalline Form 3 Compound 1 di(hydrogen sulfate) and crystalline Form 4 Compound 1 mono(hydrogen sulfate) using the following conditions: (1) Ambient light, temperature and humidity conditions (open vial); (2) 40° C./75% RH (open vial); and (3) 80° C. (closed vial). After 7 days of storage under the specified conditions, XRPD and HPLC analyses were carried out on the residual solid materials, and the results are summarized in Table 51.
Example 18-Seven Day Stability Study on Crystalline Form 2 Compound 1 di(hydrogen sulfate) trihydrate: A 7-day stability study was conducted on crystalline Form 2 Compound 1 di(hydrogen sulfate) trihydrate using the following conditions: (1) ambient light, temperature, and humidity conditions (open vial); (2) 40° C., 75% RH (open vial); and (3) 80° C. (closed vial). After 7 days of storage under the specified, XRPD and HPLC analyses were carried out on the residual solid materials.

[6] = 7 days, 40° C./75% RH (open vial)

SMILES | XRPD [1] | post-DVS sample (XRPD / appearance) [2] | KF moisture content [4] | 7-day Stability studies: Purity compared to input [5] | solid form by XRPD after storage ([5]; 7 days, 40° C./75% RH) | solid form by XRPD after storage ([5]; 7 days, 80° C.) | solid form by XRPD after storage ([5]; 7 days, ambient conditions) | 7-day Stability studies: solid form ([5]; all conditions) | DVS uptake ([2]; at 80% RH) | moisture uptake (DVS) ([2]; between 0-10% RH, 25° C.) | moisture uptake (DVS) ([2]; between 10-80% RH, 25° C.) | VT-XRPD: Melt from [3] | VT-XRPD: input form retained at [3] | also measured
COc1cc(C(=O)O[C@@H]2CCCOc3cc(cc(OC)c3OC)C(=O)NCCCN3CCCN(CC2)CC3)cc(OC)c1OC.O=S(=O)(O)O | Crystalline | conversion to crystalline Form 8 Compound 1 mono(hydrogen sulfate) | 14.87% moisture | Purity similar | retained | predominantly amorphous | retained | Form 4 retained | – | – | – | – | – | DVS: Conversion to (solid form) ([2]; after DVS at 40% RH): Form 8 after; DVS loss ([2]; at 20-30% RH (desorption)): 8.0% loss at; DVS uptake ([2]; at 40-50% RH (2nd sorption)): 8.1% uptake at; moisture loss (DVS) ([2]; between 20-30% RH): ca. 8.0%; moisture uptake (DVS) ([2]; between 40-40% RH during the sorption cycles): ca. 4.9%; moisture uptake (DVS) ([2]; between 40-50% RH): 8.1%; moisture uptake (DVS) ([2]; between 50-80% RH): ca. 2.2%; VT-XRPD: Conv. To Form 8 at [3]: at 40-70 °C; VT-XRPD: Conversion to amorph. At [3]: amorph. At ≥90 °C; temperature above which the sample turned amorphous [3]: greater than 90 °C; temperature range of conversion to crystalline Form 8 Compound 1 mono(hydrogen sulfate) [3]: 40-70 °C; 7-day Stability studies: crystallinity ([5]; at 80° C., printed 'crystallinity significantly reduced'): reduced at 80° C.)
COc1cc(C(=O)O[C@@H]2CCCOc3cc(cc(OC)c3OC)C(=O)NCCCN3CCCN(CC2)CC3)cc(OC)c1OC.O=S(=O)(O)O.O=S(=O)(O)O [crystalline Form 3 Compound 1 di(hydrogen sulfate)] | Partially | conversion to crystalline Form 2 Compound 1 di(hydrogen sulfate) trihydrate | 1.89% moisture | Purity similar | Conversion to crystalline Form 2 Compound 1 di(hydrogen sulfate) trihydrate | mixture of crystalline Form 3 Compound 1 di(hydrogen sulfate) and crystalline Form 9 Compound 1 di(hydrogen sulfate) | conversion to crystalline Form 6 Compound 1 di(hydrogen sulfate) | – | 7.3% uptake at | about 5.2% | ca. 2.1% | Melt from 160 °C | at 25-50 °C | DVS: solid form conversion [2]: Conversion to P2; moisture uptake (DVS) ([2]; between 40-80% RH, first sorption cycle, 25° C.): ca. 7.1%; VT-XRPD: Conv. To Form 9 from [3]: from 50-160 °C; temperature range in which the form is retained (VT-XRPD) [3]: 25-40 °C; VT-XRPD Results ([3]; Heating, 50° C., hold 30 min): 3 (trace of 9); 7-day Stability studies: solid form ([5]; at 80° C.): Form 9 at 80 °C; 7-day Stability studies: solid form ([5]; at ambient): Form 6 at ambient;
CCCN1CCNCCCNC(=O)c2cc(OC)c(OC)c(c2)OCCC[C@@H](OC(=O)c2cc(OC)c(OC)c(OC)c2)CC1 | Crystalline | – | 6.74% moisture | Purity similar | – | – | – | No change | 8.0% uptake at | about 6.3% | 1.7% | Melt from 150 °C | at 30-50 °C | DVS: Dehydrates [2]: Dehydrates <15% RH; VT-XRPD: Conv. To Form 5 at [3]: at 80-130 °C; HPLC [5, 6]: 99.86 % area; XRPD [5, 6]: 2; HPLC ([5]; 7 days, 80° C. (closed vial)): 99.85 % area; XRPD ([5]; 7 days, 80° C. (closed vial)): 2; HPLC ([5]; 7 days, Ambient (open vial)): 99.86 % area; XRPD ([5]; 7 days, Ambient (open vial)): 2; HPLC ([5]; Input sample): 99.92 % area; XRPD ([5]; Input sample): 2
